Assay results reported in ChEMBL document CHEMBL3580594, “Synthesis and biological evaluation of 4-substituted fluoronucleoside analogs for the treatment of hepatitis B virus infection” (J Med Chem, 2015).
pEC50: −log10 of the molar value. Each block holds one compound with its values, some of them ahead of it.

What was measured:
[1] = Cytotoxicity against human HepG2.2.15 cells by MTT assay; type: cell-based, HepG2 2.2.15
Hepatitis B virus [2] = assay: Antiviral activity against Hepatitis B virus in HepG2.CW cells assessed as inhibition of viral DNA replication at 1 uM after 9 days by real-time FQ-PCR analysis; type: functional; details: 216 h
Rattus norvegicus [3] = assay: In vivo drug formation in rat urine sample treated with 1-((2R,3S,4R,5R)-5-Azido-3-fluoro-4-hydroxy-5-(hydroxymethyl)tetrahydrofuran-2-yl)-4-(cyclopropylamino)-pyrimidin-2(1H)-one by LC-MS/MS analysis; type: ADME, organism-based
Hepatitis B virus [4] = assay: Antiviral activity against Hepatitis B virus in HepG2.2.15 cells assessed as inhibition of intracellular viral DNA replication at 0.1 uM after 3 days by real-time FQ-PCR analysis; type: functional; details: HepG2 2.2.15, 72 h
Hepatitis B virus [5] = assay: Antiviral activity against Hepatitis B virus in HepG2.2.15 cells assessed as inhibition of extracellular viral DNA replication at 0.1 uM after 9 days by real-time FQ-PCR analysis; type: functional; details: HepG2 2.2.15, 216 h
Hepatitis B virus [6] = assay: Antiviral activity against Hepatitis B virus in HepG2.2.15 cells assessed as inhibition of extracellular viral DNA replication at 0.1 uM after 6 days by real-time FQ-PCR analysis; type: functional; details: HepG2 2.2.15, 144 h
Hepatitis B virus [7] = assay: Antiviral activity against Hepatitis B virus in HepG2.2.15 cells assessed as inhibition of intracellular viral DNA replication at 0.1 uM after 9 days by real-time FQ-PCR analysis; type: functional; details: HepG2 2.2.15, 216 h
Hepatitis B virus [8] = assay: Antiviral activity against Hepatitis B virus in HepG2.2.15 cells assessed as inhibition of intracellular viral DNA replication at 0.1 uM after 6 days by real-time FQ-PCR analysis; type: functional; details: HepG2 2.2.15, 144 h
Hepatitis B virus [9] = assay: Antiviral activity against Hepatitis B virus in HepG2.2.15 cells assessed as inhibition of extracellular viral DNA replication at 0.1 uM after 3 days by real-time FQ-PCR analysis; type: functional; details: HepG2 2.2.15, 72 h
Hepatitis B virus [10] = assay: Antiviral activity against lamivudine-resistant Hepatitis B virus; type: functional, organism-based
Hepatitis B virus [11] = assay: Antiviral activity against wild type Hepatitis B virus; type: functional, organism-based
Rattus norvegicus [12] = assay: In vivo drug formation in rat urine sample treated with 1-((2R,3S,4R,5R)-5-Azido-3-fluoro-4-hydroxy-5-(hydroxymethyl)tetrahydrofuran-2-yl)-4-(cyclopropylamino)-pyrimidin-2(1H)-one by NMR spectrum; type: ADME, organism-based
Rattus norvegicus [13] = assay: In vivo drug formation in rat bile sample treated with 1-((2R,3S,4R,5R)-5-Azido-3-fluoro-4-hydroxy-5-(hydroxymethyl)tetrahydrofuran-2-yl)-4-(cyclopropylamino)-pyrimidin-2(1H)-one by LC-MS/MS analysis; type: ADME, organism-based
Rattus norvegicus [14] = assay: In vivo drug formation in rat plasma sample treated with 1-((2R,3S,4R,5R)-5-Azido-3-fluoro-4-hydroxy-5-(hydroxymethyl)tetrahydrofuran-2-yl)-4-(cyclopropylamino)-pyrimidin-2(1H)-one by LC-MS/MS analysis; type: ADME, organism-based
Duck hepatitis B virus [15] = assay: Antiviral activity against duck Hepatitis B virus infected in duck assessed as inhibition of viral DNA replication in liver at 20 mg/kg/day, po measured after 3 days of treatment withdrawal; type: functional; details: 72 h
[16] = Tmax in Sprague-Dawley rat at 32 mg/kg, po; type: ADME, organism-based; details: in vivo
Duck hepatitis B virus [17] = assay: Antiviral activity against duck Hepatitis B virus infected in duck assessed as inhibition of viral DNA replication in liver at 20 mg/kg/day, po treatment initiated at day 5 after infection relative to control; type: functional; details: 120 h
[18] = Cmax in Sprague-Dawley rat at 32 mg/kg, po; type: ADME, organism-based; design: dose 32 mg/kg, route oral; details: in vivo
Duck hepatitis B virus [19] = assay: Antiviral activity against duck Hepatitis B virus infected in duck assessed as inhibition of viral DNA replication in serum at 20 mg/kg/day, po measured after 3 days of treatment withdrawal; type: functional; details: 72 h
[20] = Oral bioavailability in Sprague-Dawley rat at 32 mg/kg; type: ADME, organism-based; details: in vivo
Duck hepatitis B virus [21] = assay: Antiviral activity against duck Hepatitis B virus infected in duck assessed as inhibition of viral DNA replication in serum at 20 mg/kg/day, po treatment initiated at day 10 after infection relative to control; type: functional; details: 240 h
Duck hepatitis B virus [22] = assay: Antiviral activity against duck Hepatitis B virus infected in duck assessed as inhibition of viral DNA replication in serum at 20 mg/kg/day, po treatment initiated at day 5 after infection relative to control; type: functional; details: 120 h
Duck hepatitis B virus [23] = assay: Antiviral activity against duck Hepatitis B virus infected in duck assessed as inhibition of viral DNA replication in liver at 20 mg/kg/day, po treatment initiated at day 10 after infection relative to control; type: functional; details: 240 h

SMILES: CNc1ccn([C@@H]2O[C@@](CO)(N=[N+]=[N-])[C@@H](O)[C@@H]2F)c(=O)n1
CC50 [1]: > 125 µM
inhibition at 1 µM (Hepatitis B virus [2]): 81.1%

Drug metabolism (Rattus norvegicus [3]): metabolite_detected
SMILES: [N-]=[N+]=N[C@]1(CO)O[C@@H](n2ccc(NC3C(O)C3O)nc2=O)[C@@H](F)[C@@H]1O (stereo not given in full)

SMILES: [N-]=[N+]=N[C@]1(CO)O[C@@H](n2ccc(NC3CCCC3)nc2=O)[C@@H](F)[C@@H]1O
CC50 [1]: > 125 µM
inhibition at 1 µM (Hepatitis B virus [2]): 37.3%

SMILES: CC(C)Nc1ccn([C@@H]2O[C@@](CO)(N=[N+]=[N-])[C@@H](O)[C@@H]2F)c(=O)n1
CC50 [1]: > 125 µM
inhibition at 1 µM (Hepatitis B virus [2]): 43.7%

SMILES: C=C1[C@H](CO)[C@@H](O)C[C@@H]1n1cnc2c(=O)[nH]c(N)nc21
inhibition at 0.1 µM (Hepatitis B virus [4]): 37.8%
CC50 [1]: 30 µM
inhibition at 0.1 µM (Hepatitis B virus [5]): 78.6%
inhibition at 0.1 µM (Hepatitis B virus [6]): 47.8%
inhibition at 0.1 µM (Hepatitis B virus [7]): 57.6%
inhibition at 1 µM (Hepatitis B virus [2]): 95.7%
inhibition at 0.1 µM (Hepatitis B virus [8]): 40.6%
inhibition at 0.1 µM (Hepatitis B virus [9]): 38.2%

SMILES: [N-]=[N+]=N[C@]1(CO)O[C@@H](n2ccc(N)nc2=O)[C@@H](F)[C@@H]1O [RO-0622]
pEC50 (Hepatitis B virus [10]): 6.57
pEC50 (Hepatitis B virus [11]): 6.92
Drug metabolism (Rattus norvegicus [12]): metabolite_detected
Drug metabolism (Rattus norvegicus [3]): metabolite_detected

SMILES: [N-]=[N+]=N[C@]1(CO)O[C@@H](n2ccc(=O)[nH]c2=O)[C@@H](F)[C@@H]1O
CC50 [1]: > 125 µM
inhibition at 1 µM (Hepatitis B virus [2]): 75.5%

SMILES: [N-]=[N+]=N[C@]1(CO)O[C@@H](n2ccc(N3CCCC3)nc2=O)[C@@H](F)[C@@H]1O
CC50 [1]: > 125 µM
inhibition at 1 µM (Hepatitis B virus [2]): 33.1%

SMILES: CCC(C)Nc1ccn([C@@H]2O[C@@](CO)(N=[N+]=[N-])[C@@H](O)[C@@H]2F)c(=O)n1 (stereo not given in full)
CC50 [1]: > 125 µM
inhibition at 1 µM (Hepatitis B virus [2]): 61.7%

SMILES: CCNc1ccn([C@@H]2O[C@@](CO)(N=[N+]=[N-])[C@@H](O)[C@@H]2F)c(=O)n1
CC50 [1]: > 125 µM
inhibition at 1 µM (Hepatitis B virus [2]): 78%

SMILES: CN(C)c1ccn([C@@H]2O[C@@](CO)(N=[N+]=[N-])[C@@H](O)[C@@H]2F)c(=O)n1
CC50 [1]: > 125 µM
inhibition at 1 µM (Hepatitis B virus [2]): 43.6%

SMILES: CCN(CC)c1ccn([C@@H]2O[C@@](CO)(N=[N+]=[N-])[C@@H](O)[C@@H]2F)c(=O)n1
CC50 [1]: > 125 µM
inhibition at 1 µM (Hepatitis B virus [2]): 7.1%

SMILES: [N-]=[N+]=N[C@]1(CO)O[C@@H](n2ccc(NC3CCCCC3)nc2=O)[C@@H](F)[C@@H]1O
CC50 [1]: > 125 µM
inhibition at 1 µM (Hepatitis B virus [2]): 23.6%

Drug metabolism (Rattus norvegicus [13]): metabolite_detected
Drug metabolism (Rattus norvegicus [14]): metabolite_detected
Drug metabolism (Rattus norvegicus [3]): metabolite_detected
SMILES: [N-]=[N+]=N[C@]1(CO)O[C@@H](n2ccc(NC3CC3O)nc2=O)[C@@H](F)[C@@H]1O (stereo not given in full)

Tmax [16]: 5 h
Cmax [18]: 274 ng/mL
bioavailability [20]: 18.7%
SMILES: Nc1ccn([C@@H]2CS[C@H](CO)O2)c(=O)n1 [LAMIVUDINE]
inhibition in vivo at 20 mg/kg/day (Duck hepatitis B virus [15]): 76.2%
inhibition in vivo at 20 mg/kg/day (Duck hepatitis B virus [17]): 52.7%
inhibition in vivo at 20 mg/kg/day (Duck hepatitis B virus [19]): 79.3%
inhibition in vivo at 20 mg/kg/day (Duck hepatitis B virus [21]): 82.2%
inhibition in vivo at 20 mg/kg/day (Duck hepatitis B virus [22]): 88.6%
inhibition in vivo at 20 mg/kg/day (Duck hepatitis B virus [23]): 84%
